Assay results reported in patent US11299641B2, “Curable liquid composition, composition-accommodating container, liquid composition discharging device, cured material, and method of manufacturing cured material” (RICOH COMPANY, LTD., priority 2018, dated 2022).

system: female mice; test: skin sensitization test in accordance with the Local Lymph Node Assay (LLNA) method, SI value; assay type: in vivo; conditions: test substance 50.0 w/v percent in acetone/olive oil 4 to 1, 25 μL per ear once a day for three days, BrdU intake
Procedure: The SI value was measured in the manner described below according to the skin sensitization test in accordance with the Local Lymph Node Assay (LLNA) method.
α-hexylcinnamaldehyde (HCA; product of FUJIFILM Wako Pure Chemical Corporation) was used as positive control material.
A liquid mixture containing acetone (product of FUJIFILM Wako Pure Chemical Corporation) and olive oil (product of Fudimi Pharmaceutical Co., Ltd.) in a volume ratio of 4 to 1 was used as medium.
For each of the test substances, the positive control, or the medium control, female mice were acclimated for 8 days including 6-day quarantine. No abnormalities were found in all the mice during the quarantine/acclimation period.
Based on the body weights measured two days before the initiation of sensitization, the mice were categorized into 2 groups (4 mice/group) by the body weight stratified random sampling method so that the body weight of each individual was within −20 to +20 percent of the average body weight of all the individuals. Each of the tested animals was 8 to 9 weeks old at the time of the initiation of sensitization. The individuals not classified into the groups were excluded from the test.
The group compositions of the medium control group and positive control group used for the measurement of the SI value are shown in Table 1.
The test substance was weighed in a measuring flask, and the volume of the test substance was adjusted to 1 mL while adding the medium. The thus-prepared test substance solution was placed in a light-shielded airtight container (made of glass).
The preparation solution and the medium of each test substance and positive control substance were applied to both ears of each animal in an amount of 25 μL for each. A micropipettor was used for application. The tested animals were subjected to this treatment once a day for three consecutive days.
About 48 hours after the final sensitization, the BrdU preparation solution (0.5 mL) was intraperitoneally administered once to each of the tested animals.
All the animals used for the test were observed once or more times a day from the day of the initiation of sensitization to the day of the removal of the auricular lymph node (i.e., the day when the animals were transferred from the animal room). […] Measurement of Body Weights The body weight of each of the tested animals was measured on the day of the initiation of sensitization and on the day of the removal of the auricular lymph node (i.e., the day when the animals were transferred from the animal room). Also, the weight average and the standard error for each group were calculated. Removal of Auricular Lymph Node and Measurement of Weight Thereof About 24 hours after the administration of BrdU, the tested animals were allowed to undergo euthanasia, and their auricular lymph nodes were sampled. The surrounding tissue of each auricular lymph node was removed, and the auricular lymph nodes from both the auricles were collectively weighed. Also, the weight average and the standard error of the auricular lymph nodes for each group were calculated. After the weight measurement, the auricular lymph nodes of each individual were stored in a frozen state using a BIO MEDICAL FREEZER set to −20 degrees C. Measurement of BrdU Intake After returning the auricular lymph nodes to room temperature, the auricular lymph nodes were mashed with the gradual addition of physiological saline, and suspended therein. The thus-obtained suspension was filtrated and thereafter dispensed into a 96-well microplate 3 wells by 3 wells per individual. The thus-dispensed suspensions were measured for intake of BrdU according to the ELISA method. The reagents used were a commercially available kit (Cell Proliferation ELISA, BrdU colorimetric, Cat. No. 1647229, product of Roche Diagnostics K.K.). […]

First: C=C(C)C(=O)OCCOCCOC(=O)C(=C)C [Example A1, Diethylene glycol dimethacrylate]
Second: C=CC(=O)OCCCCCCCCCCCCCCCC(C)C [Example A5, Isostearyl acrylate]
The “SI value in the LLNA test” value of the first is lower: 1.1 for the first, 1.4 for the second.

Going from `C=C(C)C(=O)OCC(CO)OC(=O)C(=C)C` (stereo not drawn) [Example A7, Glycerol dimethacrylate] to `C=C(C)C(=O)OCC(O)CO` (stereo not drawn) [Example A8, Glycerol monomethacrylate], the “SI value in the LLNA test” value falls from 1.2 to 1.1.

Going from `CCC(Cc1ccccc1)(C(=O)c1ccc(N2CCOCC2)cc1)N(C)C` (stereo not drawn) [Example B3, 2-(dimethylamino)-1-(4-morpholinophenyl)-2-benzyl-1-butanone] to “Polypropylene glycol diacrylate [Example A4]”, the “SI value in the LLNA test” value falls from 10 to 1.5.

For “Tricyclodecanedimethanol dimethacrylate [Example A6]”, the “SI value in the LLNA test” value was 1.3.

system: not given; test: not given; conditions: Safety Data Sheet; cited from earlier work

In the case of `CC(C)(O)C(=O)c1ccc(OCCO)cc1` [Example B1, 1-[4-(2-hydroxyethoxy)-phenyl]-2-hydroxy-2-methyl-1-propane-1-one], the “skin sensitization, evaluation by SDS” value is given as “none”.
For “Caprolactone-modified dipentaerythritol hexaacrylate [Example A2]”, the “skin sensitization, evaluation by SDS” value is given as “none”.
